Assay results reported in patent US8192962B2, “Processes for detecting toxic substances” (Daikin Industries, Ltd., priority 2001, dated 2012).

Test system: Energy system protein genes
Experiment: DNA chip mRNA expression in yeast, energy system protein genes (Table 4)
Format: cell-based, Saccharomyces cerevisiae S288C
Method in brief: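 Expression change after 2 h toxicant exposure (growth-inhibiting, sub-lethal) of log-phase S. cerevisiae S288C at 25° C. Oligo-dT-purified mRNA was labeled with Cy3-dUTP or Cy5-dUTP and hybridized >12 h at 65° C. to a genome-wide chip; ratio of scanned fluorescence to control.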

C=CC=O [(14), acrolein]
The level of expressed mRNA in the presence of chemical substance/The level of expressed mRNA in the absence of chemical substance (yeast gene YJR048W): 2.5 | The level of expressed mRNA in the presence of chemical substance/The level of expressed mRNA in the absence of chemical substance (yeast gene YJR121W, cells incubated two hours with the chemical substance): 0.7 | The level of expressed mRNA in the presence of chemical substance/The level of expressed mRNA in the absence of chemical substance (yeast gene YJR155W): 9.4 | The level of expressed mRNA in the presence of chemical substance/The level of expressed mRNA in the absence of chemical substance (yeast gene YKL016C, cells incubated two hours with the chemical substance): 1.6 | The level of expressed mRNA in the presence of chemical substance/The level of expressed mRNA in the absence of chemical substance (yeast gene YKL060C, cells incubated two hours with the chemical substance): 0.8 | The level of expressed mRNA in the presence of chemical substance/The level of expressed mRNA in the absence of chemical substance (yeast gene YKL141W, cells incubated two hours with the chemical substance): 1.4 | The level of expressed mRNA in the presence of chemical substance/The level of expressed mRNA in the absence of chemical substance (yeast gene YKL148C, cells incubated two hours with the chemical substance): 0.8 | The level of expressed mRNA in the presence of chemical substance/The level of expressed mRNA in the absence of chemical substance (yeast gene YKL150W): 1.4 | The level of expressed mRNA in the presence of chemical substance/The level of expressed mRNA in the absence of chemical substance (yeast gene YKR009C, cells incubated two hours with the chemical substance): 1.0 | The level of expressed mRNA in the presence of chemical substance/The level of expressed mRNA in the absence of chemical substance (yeast gene YKR058W, cells incubated two hours with the chemical substance, 25° C., YPD medium): 1.3 | The level of expressed mRNA in the presence of chemical substance/The level of expressed mRNA in the absence of chemical substance (yeast gene YKR097W): 2.1 | The level of expressed mRNA in the presence of chemical substance/The level of expressed mRNA in the absence of chemical substance (yeast gene YLL041C, cells incubated two hours with the chemical substance): 1.2 | The level of expressed mRNA in the presence of chemical substance/The level of expressed mRNA in the absence of chemical substance (yeast gene YLR038C, cells incubated two hours with the chemical substance): 1.6 | The level of expressed mRNA in the presence of chemical substance/The level of expressed mRNA in the absence of chemical substance (yeast gene YLR044C, cells incubated two hours with the chemical substance): 0.5 | The level of expressed mRNA in the presence of chemical substance/The level of expressed mRNA in the absence of chemical substance (yeast gene YLR134W, cells incubated two hours with the chemical substance): 0.6 | The level of expressed mRNA in the presence of chemical substance/The level of expressed mRNA in the absence of chemical substance (yeast gene YLR258W, cells incubated two hours with the chemical substance): 1.2 | The level of expressed mRNA in the presence of chemical substance/The level of expressed mRNA in the absence of chemical substance (yeast gene YLR284C, cells incubated two hours with the chemical substance): 1.3 | The level of expressed mRNA in the presence of chemical substance/The level of expressed mRNA in the absence of chemical substance (yeast gene YLR295C, cells incubated two hours with the chemical substance, 25° C., YPD medium): 1.2 | The level of expressed mRNA in the presence of chemical substance/The level of expressed mRNA in the absence of chemical substance (yeast gene YLR304C, cells incubated two hours with the chemical substance): 0.7 | The level of expressed mRNA in the presence of chemical substance/The level of expressed mRNA in the absence of chemical substance (yeast gene YLR345W): 1.5 | The level of expressed mRNA in the presence of chemical substance/The level of expressed mRNA in the absence of chemical substance (yeast gene YLR354C, cells incubated two hours with the chemical substance): 0.9 | The level of expressed mRNA in the presence of chemical substance/The level of expressed mRNA in the absence of chemical substance (yeast gene YLR377C, cells incubated two hours with the chemical substance): 2.9 | The level of expressed mRNA in the presence of chemical substance/The level of expressed mRNA in the absence of chemical substance (yeast gene YLR395C, cells incubated two hours with the chemical substance): 1.7 | The level of expressed mRNA in the presence of chemical substance/The level of expressed mRNA in the absence of chemical substance (yeast gene YML087C): 2.1 | The level of expressed mRNA in the presence of chemical substance/The level of expressed mRNA in the absence of chemical substance (yeast gene YML120C, cells incubated two hours with the chemical substance): 0.8 | The level of expressed mRNA in the presence of chemical substance/The level of expressed mRNA in the absence of chemical substance (yeast gene YML129C, cells incubated two hours with the chemical substance): 1.4 | The level of expressed mRNA in the presence of chemical substance/The level of expressed mRNA in the absence of chemical substance (yeast gene YMR073C, cells incubated two hours with the chemical substance): 2.0 | The level of expressed mRNA in the presence of chemical substance/The level of expressed mRNA in the absence of chemical substance (yeast gene YMR118C): 0.9 | The level of expressed mRNA in the presence of chemical substance/The level of expressed mRNA in the absence of chemical substance (yeast gene YMR205C, cells incubated two hours with the chemical substance): 0.5 | The level of expressed mRNA in the presence of chemical substance/The level of expressed mRNA in the absence of chemical substance (yeast gene YMR261C, cells incubated two hours with the chemical substance): 0.6 | The level of expressed mRNA in the presence of chemical substance/The level of expressed mRNA in the absence of chemical substance (yeast gene YMR267W, cells incubated two hours with the chemical substance, 25° C., YPD medium): 1.0 | The level of expressed mRNA in the presence of chemical substance/The level of expressed mRNA in the absence of chemical substance (yeast gene YMR323W, cells incubated two hours with the chemical substance): 1.2 | The level of expressed mRNA in the presence of chemical substance/The level of expressed mRNA in the absence of chemical substance (yeast gene YNL071W): 0.8 | The level of expressed mRNA in the presence of chemical substance/The level of expressed mRNA in the absence of chemical substance (yeast gene YNL202W, cells incubated two hours with the chemical substance): 1.0 | The level of expressed mRNA in the presence of chemical substance/The level of expressed mRNA in the absence of chemical substance (yeast gene YNL241C): 1.1 | The level of expressed mRNA in the presence of chemical substance/The level of expressed mRNA in the absence of chemical substance (yeast gene YNL331C): 7.5 | The level of expressed mRNA in the presence of chemical substance/The level of expressed mRNA in the absence of chemical substance (yeast gene YOL086C, cells incubated two hours with the chemical substance): 0.6 | The level of expressed mRNA in the presence of chemical substance/The level of expressed mRNA in the absence of chemical substance (yeast gene YOL165C): 9.1 | The level of expressed mRNA in the presence of chemical substance/The level of expressed mRNA in the absence of chemical substance (yeast gene YOR142W, cells incubated two hours with the chemical substance): 0.8 | The level of expressed mRNA in the presence of chemical substance/The level of expressed mRNA in the absence of chemical substance (yeast gene YOR178C, cells incubated two hours with the chemical substance): 1.0 | The level of expressed mRNA in the presence of chemical substance/The level of expressed mRNA in the absence of chemical substance (yeast gene YOR388C, cells incubated two hours with the chemical substance): 1.3 | The level of expressed mRNA in the presence of chemical substance/The level of expressed mRNA in the absence of chemical substance (yeast gene YPL031C, cells incubated two hours with the chemical substance): 0.9 | The level of expressed mRNA in the presence of chemical substance/The level of expressed mRNA in the absence of chemical substance (yeast gene YPL061W, cells incubated two hours with the chemical substance): 0.6 | The level of expressed mRNA in the presence of chemical substance/The level of expressed mRNA in the absence of chemical substance (yeast gene YPL088W): 1.6 | The level of expressed mRNA in the presence of chemical substance/The level of expressed mRNA in the absence of chemical substance (yeast gene YPL171C): 9.3 | The level of expressed mRNA in the presence of chemical substance/The level of expressed mRNA in the absence of chemical substance (yeast gene YPL240C): 0.7 | The level of expressed mRNA in the presence of chemical substance/The level of expressed mRNA in the absence of chemical substance (yeast gene YPL262W, cells incubated two hours with the chemical substance): 1.2 | The level of expressed mRNA in the presence of chemical substance/The level of expressed mRNA in the absence of chemical substance (yeast gene YPL275W, cells incubated two hours with the chemical substance): 1.0 | The level of expressed mRNA in the presence of chemical substance/The level of expressed mRNA in the absence of chemical substance (yeast gene YPL276W, cells incubated two hours with the chemical substance): 0.9 | The level of expressed mRNA in the presence of chemical substance/The level of expressed mRNA in the absence of chemical substance (yeast gene YPR048W, cells incubated two hours with the chemical substance): 1.2 | The level of expressed mRNA in the presence of chemical substance/The level of expressed mRNA in the absence of chemical substance (yeast gene YPR184W, cells incubated two hours with the chemical substance): 1.3
